“And” between values parts separate entries of the source, which are not always exact repeats. Identical values can stand only once. Like-named read-outs stand apart in the source and are kept apart here.
Tested on: T. brucei lysate proteins
Assay type: binding, Trypanosoma brucei

Compound: CCCCCCOc1cccc(Cc2cnc(N)nc2N)c1 [compound 2]
- fold change - vehicle control: 1 and 0.55 and 0.88 and 0.98 and 0.99
- fold change - vehicle control (protein RHS6A (CZT00028360.1)): 0.94
- fold change - vehicle control (protein TB09.160.1250 HY[…], CONSERVED): 0.96
- fold change - vehicle control (protein TB09.160.3670 RIBOSOMAL PROTEIN S6, PUTATIVE): 0.84
- fold change - vehicle control (protein TB09.211.2630 60S RIBOSOMAL PROTEIN L23, PUTATIVE): 1.12
- fold change - vehicle control (protein TB09.211.4513 KIN[…] PROTEIN KMP-11): 0.9
- fold change - vehicle control (protein TB11.V4.0005 RIBONUCLEOSIDE-DIPHOSPHATE REDUCTASE SMALL CHAIN): 0.86
- fold change - vehicle control (protein TB11.01.0870 R[…] A, 51KDA SUBUNIT, PUTATIVE): 1.05
- fold change - vehicle control (protein TB11.01.2560 40S RIBOSOMAL PROTEIN SA, PUTATIVE): 1.05
- fold change - vehicle control (protein TB11.01.4880 HY[…], CONSERVED): 0.89
- fold change - vehicle control (protein TB11.01.7090 HY[…], CONSERVED): 0.9
- fold change - vehicle control (protein TB11.02.2510 GUANINE NUCLEOTIDE-BINDING BETA SUBUNIT-LIKE PROTEIN): 0.96
- fold change - vehicle control (protein TB11.02.4170 40S RIBOSOMAL PROTEIN S5, PUTATIVE): 1.39
- fold change - vehicle control (protein TB11.03.0250 C[…]): 1.72
- fold change - vehicle control (protein TB11.46.0009 HY[…], CONSERVED): 1.02
- fold change - vehicle control (protein TB427TMP.01.0620 HY[…], CONSERVED): 0.96
- fold change - vehicle control (protein TB427TMP.01.1475 40S RIBOSOMAL PROTEIN S27, PUTATIVE): 1.03
- fold change - vehicle control (protein TB427TMP.01.4280 HY[…], CONSERVED): 0.85
- fold change - vehicle control (protein TB427TMP.01.4650 HY[…], CONSERVED): 1.21
- fold change - vehicle control (protein TB427TMP.01.4810 HY[…], CONSERVED): 0.93
- fold change - vehicle control (protein TB427TMP.01.5680 HY[…], CONSERVED): 0.97
- fold change - vehicle control (protein TB427TMP.01.8390 HY[…], CONSERVED): 0.8
- fold change - vehicle control (protein TB427TMP.02.0230 HY[…], CONSERVED): 1.22
- fold change - vehicle control (protein TB427TMP.02.0460 NUCLEOPORIN): 0.88
- fold change - vehicle control (protein TB427TMP.02.1106 NUCLEOBASE/NUCLEOSIDE TRANSPORTER 8 1): 1.35
- fold change - vehicle control (protein TB427TMP.160.2050 ENDO-BETA-N-ACETYLGLUCOSAMINIDASE, PUTATIVE): 0.89
- fold change - vehicle control (protein TB427TMP.160.4310 GLUTAMATE DEHYDROGENASE): 0.49
- fold change - vehicle control (protein TB427TMP.160.4450 40S RIBOSOMAL PROTEIN S3, PUTATIVE): 1.06
- fold change - vehicle control (protein TB427TMP.160.4630 HY[…], CONSERVED): 0.91
- fold change - vehicle control (protein TB427TMP.160.5200 HY[…], CONSERVED): 0.86
- fold change - vehicle control (protein TB427TMP.160.5670 HY[…], CONSERVED): 0.81
- fold change - vehicle control (protein TB427TMP.211.0930 POLYADENYLATE-BINDING PROTEIN 1): 1.27
- fold change - vehicle control (protein TB427TMP.211.1750 MIT[…] PROTEIN, PUTATIVE): 0.97
- fold change - vehicle control (protein TB427TMP.211.3510 ATP-DEPENDENT DEAD/H RNA HELICASE, PUTATIVE): 0.96
- fold change - vehicle control (protein TB427TMP.211.4540 RNA-BINDING PROTEIN, PUTATIVE): 0.6
- fold change - vehicle control (protein TB427TMP.244.2840 HY[…], CONSERVED): 1
- fold change - vehicle control (protein TB427.01.1240 CYTIDINE TR[…], PUTATIVE): 0.8
- fold change - vehicle control (protein TB427.01.2570 COATOMER BETA SUBUNIT): 0.82
- fold change - vehicle control (protein TB427.01.3910 HY[…], CONSERVED): 0.61
- fold change - vehicle control (protein TB427.02.450 RETRO[…] SPOT (RHS) PROTEIN, PUTATIVE): 0.84
- fold change - vehicle control (protein TB427.04.3350 HY[…], CONSERVED): 1.08
- fold change - vehicle control (protein TB427.04.3890 ATP-DEPENDENT RNA HELICASE, PUTATIVE): 0.83
- fold change - vehicle control (protein TB427.04.4870 AMINO ACID TRANSPORTER, PUTATIVE): 1.02
- fold change - vehicle control (protein TB427.04.750 50S RIBOSOMAL PROTEIN L7AE, PUTATIVE): 0.95
- fold change - vehicle control (protein TB427.04.960 HY[…], CONSERVED): 0.72
- fold change - vehicle control (protein TB427.05.1490 HY[…], CONSERVED): 0.95
- fold change - vehicle control (protein TB427.05.1780 HY[…], CONSERVED): 0.73
- fold change - vehicle control (protein TB427.05.3030 INTR[…] PROTEIN IFT122, PUTATIVE): 0.96
- fold change - vehicle control (protein TB427.06.3110 PROTEIN KINASE, PUTATIVE (CRK11)): 0.94
- fold change - vehicle control (protein TB427.06.5110 DAMAGE-SPECIFIC DNA BINDING PROTEIN, PUTATIVE): 0.9
- fold change - vehicle control (protein TB427.07.2670 HY[…], CONSERVED): 0.98
- fold change - vehicle control (protein TB427.07.3040 HY[…], CONSERVED): 0.96
- fold change - vehicle control (protein TB427.07.3530 HY[…], CONSERVED): 0.91
- fold change - vehicle control (protein TB427.07.4970 GLUTAMINE SYNTHETASE, PUTATIVE): 0.92
- fold change - vehicle control (protein TB427.07.5560 GLUCOSAMINE-FRUCTOSE-6-PHOSPHATE AMINOTRANSFERASE, PUTATIVE): 0.87
- fold change - vehicle control (protein TB427.07.5890 HY[…], CONSERVED): 0.8
- fold change - vehicle control (protein TB427.07.7070 HY[…], CONSERVED): 0.79
- fold change - vehicle control (protein TB427.07.7460 HY[…], CONSERVED): 0.98
- fold change - vehicle control (protein TB427.08.1500 HY[…], CONSERVED): 0.94
- fold change - vehicle control (protein TB427.08.1840 HY[…], CONSERVED): 0.7
- fold change - vehicle control (protein TB427.08.1960 HY[…], CONSERVED): 0.83
- fold change - vehicle control (protein TB427.08.2080 HY[…], CONSERVED): 0.75
- fold change - vehicle control (protein TB427.08.3750 NUCLEOLAR PROTEIN, PUTATIVE): 1.04
- fold change - vehicle control (protein TB427.08.6390 LYSOPHOSPHOLIPASE, PUTATIVE): 0.97
- fold change - vehicle control (protein TB427.10.10610 PROTEIN TYROSINE PHOSPHATASE, PUTATIVE): 0.94
- fold change - vehicle control (protein TB427.10.1100 60S RIBOSOMAL PROTEIN L9, PUTATIVE): 1.08
- fold change - vehicle control (protein TB427.10.12740): 0.97
- fold change - vehicle control (protein TB427.10.15720 […]-ATP-ASE SUBUNIT 9): 0.81
- fold change - vehicle control (protein TB427.10.2440 METACASPASE MCA4): 0.88
- fold change - vehicle control (protein TB427.10.2900 IMPORTIN BETA-1 SUBUNIT, PUTATIVE): 0.94
- fold change - vehicle control (protein TB427.10.3470 HY[…], CONSERVED): 0.79
- fold change - vehicle control (protein TB427.10.4110 60S RIBOSOMAL PROTEIN L30): 0.93
- fold change - vehicle control (protein TB427.10.4610 […]-MANNOSE SYNTHASE, PUTATIVE): 0.93
- fold change - vehicle control (protein TB427.10.5250 HY[…], CONSERVED): 0.89
- fold change - vehicle control (protein TB427.10.5840 T[…] 1-BETA, PUTATIVE): 0.85
- fold change - vehicle control (protein TB427.10.7410 SUCCINYL-COA LIGASE GDP-FORMING] BETA-CHAIN, PUTATIVE): 0.76
- fold change - vehicle control (protein TB927.10.12960 RAS-RELATED PROTEIN RAB-5): 1.03
- fold change - vehicle control (protein TB927.10.14800 PROTEIN KINASE, PUTATIVE): 1.13
- fold change - vehicle control (protein TB927.10.2980 […]-ATPASE SUBUNIT 11): 1.09
- fold change - vehicle control (protein TB927.10.3660 ASPARTATE AMINOTRANSFERASE): 1.09
- fold change - vehicle control (protein TB927.10.4570 […] 2): 0.79
- fold change - vehicle control (protein TB927.10.5140 PROTEIN KINASE, PUTATIVE): 0.91
- fold change - vehicle control (protein TB927.10.6510 CHAPERONIN HSP60, MIT[…]): 0.96
- fold change - vehicle control (protein TB927.3.1840 3-OXO-5-ALPHA-STEROID 4-DEHYDROGENASE, PUTATIVE): 1.16
- fold change - vehicle control (protein TB927.3.3780 TRYPAREDOXIN): 0.92
- fold change - vehicle control (protein TB927.3.740 HY[…], CONSERVED): 0.95
- fold change - vehicle control (protein TB927.4.2740 HY[…], CONSERVED): 0.85
- fold change - vehicle control (protein TB927.4.3590 T[…] 1-BETA, PUTATIVE): 0.81
- fold change - vehicle control (protein TB927.6.4320 HY[…], CONSERVED): 0.98
- fold change - vehicle control (protein TB927.7.2550 […] SUBUNIT 5): 0.92
- fold change - vehicle control (protein TB927.7.2980 HY[…], CONSERVED): 0.88
- fold change - vehicle control (protein TB927.7.5340 HY[…], CONSERVED): 1.48
- fold change - vehicle control (protein TB927.7.7430 ATP SYNTHASE ALPHA CHAIN, MIT[…]): 0.92
- fold change - vehicle control (protein TB927.8.1990 PEROXIDOXIN): 1.04
- fold change - vehicle control (protein TB927.8.4720 AMINO ACID TRANSPORTER, PUTATIVE): 1.06

Source: article PMC6199744, “Development of Chemical Proteomics for the Folateome and Analysis of the Kinetoplastid Folateome” (ACS Infectious Diseases, 2018)
